This is an account of results in US20220389058A1, “PEPTIDES AND COMPOSITIONS FOR USE IN COSMETICS AND MEDICINE” (LIPOTRUE, S.L., priority 2019, published 2022).

Test [1] deals with IL33. Description: IL33 expression modulation by RT-qPCR in HEKa cells (Example 7). In kind it is cell-based, Human. To be noted: 0.01 mg/mL, 24 hours. The method, then:
(§1) A stock solution of the peptide was prepared in water at 1 mg/mL. Working solution was freshly prepared at the specified concentration from stock solution in the corresponding supplemented medium.
RNA (ribonucleic acid) extraction and RT-qPCR (reverse transcription quantitative polymerase chain reaction) were performed. Briefly, HDFa and HEKa cells were seeded in duplicate (n=2) in 6-well plates at a density of 4×10^5 cells/well and maintained at standard culture conditions (106 Medium supplemented with 1% (v/v) LSGS for HDFa cells; Medium Epilife supplemented with 1% (v/v) EDGS and 1% (v/v) penicillin/streptomycin for HEKa cells; 37° C., 95% room humidity, 5% CO2) for 24 hours. Then, cells were treated with peptide Ac-SEQ ID NO: 1-NH2, Ac-SEQ ID NO: 2-NH2 or Ac-SEQ ID NO: 3-NH2 at the concentration of 0.01 mg/mL for 24 hours. Untreated cells were used as basal or negative control.
Cells were finally lysed, and replicates were pooled together for RNA extraction using Qiagen RNeasy Mini kit following manufacturer's instructions. Purified RNAs were used to generate the corresponding cDNAs (complementary deoxyribonucleic acids) by reverse transcription using a commercial kit High capacity cDNA reverse transcription kit (Applied Biosystems) which served as templates for amplification. RT-qPCR was performed with the appropriate TaqMan assay probes for IL33 (plus GAPDH—Glyceraldehyde 3-phosphate dehydrogenase—that was used as housekeeping gene) and 2×gene expression Master Mix using StepOne plus Real-Time PCR instrument. […] (Annealing and extension) (Arya, M., Shergill, I. S., Williamson, M., Gommersall, L., Arya, N., Patel, H. R. (2005) Basic principles of real-time quantitative PCR. Expert Rev. Mol. Diagn.; 5(2):209-19; and Jozefczuk, J. and Adjaye, J. (2011) Quantitative real-time PCR-based analysis of gene expression. Methods Enzymol. 500; 99-109).
(§2) The obtained data was analysed using the ΔΔCt method, which provides the target gene expression values as fold changes in the treated sample compared with an untreated basal sample. […]

Test [2] has as its system IL33. The test is described as follows: IL33 expression modulation by RT-qPCR in HDFa cells (Example 7). The format is cell-based, Human. To be noted: 0.01 mg/mL, 24 hours. The method, then:
as §1
RNA (ribonucleic acid) extraction and RT-qPCR (reverse transcription quantitative polymerase chain reaction) were performed. Briefly, HDFa and HEKa cells were seeded in duplicate (n=2) in 6-well plates at a density of 4×10^5 cells/well and maintained at standard culture conditions (106 Medium supplemented with 1% (v/v) LSGS for HDFa cells; Medium Epilife supplemented with 1% (v/v) EDGS and 1% (v/v) penicillin/streptomycin for HEKa cells; 37° C., 95% room humidity, 5% CO2) for 24 hours. […]
Cells were finally lysed, and replicates were pooled together for RNA extraction using Qiagen RNeasy Mini kit following manufacturer's instructions. […] (Annealing and extension) (Arya, M., Shergill, I. S., Williamson, M., Gommersall, L., Arya, N., Patel, H. R. (2005) Basic principles of real-time quantitative PCR. Expert Rev. Mol. Diagn.; 5(2):209-19; and Jozefczuk, J. and Adjaye, J. (2011) Quantitative real-time PCR-based analysis of gene expression. Methods Enzymol. 500; 99-109).
as §2

Test [3] in a line: Lipid peroxidation, TBARS assay (Example 13). The format is biochemical. The following applies: 0.01, 0.05, 0.1 and 0.5 mg/mL; 2 hours at 37° C.; vs negative control. The procedure: Briefly, Trolox (positive control), 0.01, 0.05, 0.1 and 0.5 mg/mL of peptide Ac-SEQ ID NO: 1-NH2 in presence of small unilamellar vesicles of egg yolk phosphatidylcholine (EYPC), a substrate for lipid peroxidation were incubated for 2 hours at 37° C. in the presence of thiobarbituric acid (TBA). A fluorimetric method was used to evaluate the % of lipid peroxidation compared to the negative control (sample only with small unilamellar vesicles of egg yolk phosphatidylcholine).

The test system of the next test is emilin-1. Description: Emilin-1 protein expression, immunofluorescence in HDLMVEC (Example 18). The format is cell-based, Human. The procedure:
HDLMVEC were cultured on coverslips in Microvascular Endothelial Cell Growth (MECG) Medium at a density of 16.000 cell/cm^2 and 37° C. in a humidified atmosphere with 5% CO2. When cell confluence was around 70-80%, cells were treated with 0.05 mg/mL Ac-SEQ ID NO:1-NH2 in MECG medium for 24 hours. Then, cells were washed twice with PBS, fixed with 4% formaldehyde and permeabilized with Triton 0.2%. Next, samples were blocked for 1 hour with PBS/BSA 5%, in order to avoid nonspecific antibody binding. Emilin-1 was stained with 1:50 Emilin-1 antibody in PBS/BSA 1%, during 1.5 hours at room temperature. After proper washing with PBS, actin was stained with 50 μg/mL Phalloidin during 1 hour at room temperature. Then, cells were washed with PBS and incubated with 5 μg/mL of the secondary antibody Goat anti-Rabbit IgG for 1 hour at room temperature. Finally, coverslips were mounted using Vectashield with DAPI, that stains nuclei, and samples were kept protected from light at 4° C. until microscopic images were acquired. […]
Images were analyzed using Image J software. Shortly, threshold was adjusted to select emilin-1 staining and mean fluorescent was measured. The number of cells was counted using the DAPI staining. […]
Statistical data analysis was performed using Student t-test by comparison of fluorescence from treated cells vs non-treated cells, *, p<0.05; **, p<0.01 and ***, p<0.001.

Another test deals with integrin α9β1 (Itg9). The test is described as follows: Integrin α9β1 protein expression, immunofluorescence in HDLMVEC (Example 19). In kind it is cell-based, Human. The method, then:
HDLMVEC were cultured on coverslips in Microvascular Endothelial Cell Growth (MECG) Medium at a density of 16.000 cell/cm^2 and 37° C. in a humidified atmosphere with 5% CO2.
When cell confluence was around 70-80%, cells were treated with 0.05 mg/mL Ac-SEQ ID NO:1-NH2 in MECG medium for 24 hours. Then, cells were washed twice with PBS, fixed with 4% formaldehyde and permeabilized with Triton 0.2%. Next, samples were blocked for 1 hour with PBS/BSA 5%, in order to avoid nonspecific antibody binding.
Itg9 was stained with 1:50 anti-Itg9 antibody in PBS/BSA 1%, during 1.5 hours at room temperature. After proper washing with PBS, actin was stained with 50 μg/mL Phalloidin during 1 hour at room temperature. Then, cells were washed with PBS and incubated with 5 μg/mL of the secondary antibody Goat anti-Rabbit IgG for 1 hour at room temperature. Finally, coverslips were mounted using Vectashield with DAPI, that stains nuclei, and samples were kept protected from light at 4° C. until microscopic images were acquired.
Microscopic images were acquired using 10×objective. […]
Images were analyzed using Image J software. Shortly, threshold was adjusted to select Itg9 staining and mean fluorescent was measured. The number of cells was counted using the DAPI staining. […]

The test system of test [4] is Human Epidermal Keratinocytes (HEKa). The test is described as follows: Innate antimicrobial immunity related genes, RT-qPCR in HEKa (Example 20). In kind it is cell-based. The following applies: 0.01 mg/mL, 6 h.
Where [5] appears, read: 0.05 mg/mL, 24 hours, basal = 100.00.

Regarding “Ac-Arg-Arg-Gln-Met-Arg-Glu-NH2 (Ac-RRQMRE-NH2) [Ac-SEQ ID NO: 1-NH2]”, the “IL33 gene expression, fold change in treated cells with regard to basal control” value in the test with IL33 [1] is given as −4.58 fold change. Moreover, in the test with IL33 [2], the “IL33 expression, fold change treated cells with regard to basal control” value is −1.22 fold change. Also, in test [3], the “lipid peroxidation (TBARS)” value is “able to protect from lipid peroxidation”. In addition, the “% Mean of emilin-1 compared to untreated cells” value with emilin-1 (setting [5]) was 170.88%. The “increase of the expression of emilin-1 when compared with untreated cells” value in the test on emilin-1 (24 h of treatment) was “more than 70%”. In addition, in the test on integrin α9β1 (Itg9) (setting [5]), the “% Mean of integrin α9β1 (Itg9) compared to untreated cells” value was determined as 153.56%. Further, the “increase of the expression of Itg9 when compared with the untreated cells” value in the test on integrin α9β1 (Itg9) (24 hours of treatment) is greater than 50%. In addition, in test [4], the “DEFB1 Fold change vs. Basal” value is listed as 1.31 Fold change, the “DEFB4A Fold change vs. Basal” value is 1.58 Fold change, the “IRF1 Fold change vs. Basal” value is listed as 1.25 Fold change and the “IRF3 Fold change vs. Basal” value worked out at 1.54 Fold change. In test [4], the “ISG15 Fold change vs. Basal” value was determined as 1.38 Fold change, the “MX1 Fold change vs. Basal” value stood at 1.93 Fold change, the “OAS2 Fold change vs. Basal” value stood at 1.39 Fold change and the “S100A7 Fold change vs. Basal” value worked out at 2.04 Fold change.
